Results from PMC10952255, “Solid‐Phase Synthesis and Biological Evaluation of Peptides ADP‐Ribosylated at Histidine” (Angewandte Chemie (Weinheim an Der Bergstrasse, Germany), 2023).
Starred links: 1 amine or outer side, 2 acyl side, 3 side chain; linkers in the order of their positions; H or OH if unused. Non-standard residues stand in square brackets, D forms with d. Residues, ends and D or L forms follow the SMILES beside them. X1 = Nc1ncnc2c1ncn2[C@@H]1O[C@H](COP(=O)(O)OP(=O)(O)OC[C@H]2O[C@H](n3cncc3C[C@H](N[*:1])C(=O)[*:2])[C@H](O)[C@@H]2O)[C@@H](O)[C@H]1O

What was measured:
[1] = Chemical stability assay (LC-MS based) under acidic, basic and nucleophilic conditions; format: physicochemical
Text: Having prepared ADPr‐His peptides 26–28, we tested their stability under basic and acidic conditions in an LC–MS‐based assay to evaluate their sensitivity for future synthetic and biochemical studies. A selected set of chemically diverse conditions (aqueous acid, aqueous base and a neutral nucleophile) was probed because these are commonly applied in proteomic studies to identify ADP‐ribosylation sites[22] in proteins or during sample preparation.[14, 28] Aqueous solutions of the ADPr peptides with a final concentration of 0.1 M TFA, 0.1 M NaOH or 0.5 M NH2OH were prepared and shaken for 24 h at room temperature. […] In contrast, the NaOH treatment led to some conversion of the N(τ)‐ribosylated histidines 26 and 27 into products with an identical mass (approximately 7 and 11 %, respectively), indicating a slow epimerization of the modified histidine residue in N(τ)‐ribosyl peptides. […]
Figure 5 A) Chemical stability of peptide 28 under basic conditions (NaOH, 0.1 M). […] Peptide degradation was quantified by analyzing the UV‐trace (260 nm) using Xcalibur software. […] Enzymatic turnover of the various peptides was assessed by monitoring AMP release directly (NudT16) or converting released ADPr via NudT5 to AMP. AMP was measured using the AMP‐Glo assay (Promega). Samples are background corrected and normalized to NudT16 activity The data represents mean values±SD measured in triplicates. […]

[2] = quoted without reference; cited from earlier work

Compound | ADPr-peptide remaining in its original form ([1]; 0.1 M NaOH, after 24 h, LC-MS UV-trace 260 nm) | degradation of the pyrophosphate linkage ([1]; alkaline treatment (0.1 M NaOH), after a week, LC-MS) | pKa [2]
CC(C)C[C@H](NC(=O)CNC(=O)[C@H](C)NC(=O)CNC(=O)[C@H](Cc1cncn1[C@H]1O[C@H](COP(=O)(O)OP(=O)(O)OC[C@H]2O[C@@H](n3cnc4c(N)ncnc43)[C@H](O)[C@@H]2O)[C@@H](O)[C@H]1O)NC(=O)[C@H](Cc1ccccc1)NC(=O)[C@@H](N)[C@@H](C)O)C(=O)N[C@H](C(=O)N[C@H](C(=O)N1CCC[C@H]1C(=O)N[C@H](C(=O)N[C@@H](CC(=O)O)C(=O)N[C@@H](CCCCN)C(=O)O)C(C)C)C(C)C)C(C)C [compound 28] (H-TF[X1]GAGLVVPVDK-OH) | approximately 60% | no degradation of the pyrophosphate linkage was observed | –
c1c[nH]nn1 [1,2,3‐triazole] | – | – | 9.4
